One assay concerns the target T1, PDE4Bcat (Homo sapiens, UniProt Q07343).
T1 construct: made in house; host or cells: Sf9 insect cells (baculovirus, Bac-to-Bac / Gateway)
Briefly: Phosphodiesterase inhibitory activity, PDE4 ([3H]cAMP, recombinant enzyme). The assay is classed as biochemical. Particulars: 30° C., 20 minutes, read-out: IC50(μmol/L) PDE4.

Assay [1] concerns the target T2, PDE3A catalytic domain (PDE3Acat) (Homo sapiens, UniProt Q14432).
T2 construct: made in house; host or cells: Sf9 insect cells (baculovirus, Bac-to-Bac / Gateway)
The assay is described as follows: Phosphodiesterase inhibitory activity, PDE3 ([3H]cAMP, recombinant enzyme). Conditions: 30° C., 20 minutes, read-out: IC50(μmol/L) PDE3. The assay is classed as biochemical.

Assay [2] concerns histamine-induced bronchoconstriction in guinea pigs. Briefly: Histamine-induced bronchoconstriction reaction in guinea pigs. The assay is classed as in vivo. Particulars: Cavia porcellus, iv, 0.5 min, guinea pig, measured 30 seconds after administration, read-out: Inhibition rate (histamine-induced bronchoconstriction); for inhibition in vivo at 0.3 mg/kg: compound 0.3 mg/kg, i.v. How it is done: Guinea pigs were anesthetized with pentobarbital (30 mg/kg, i.p.). A cannula for intravenous administration was inserted into the left external jugular vein, a cannula for collecting blood and measuring blood pressure was inserted into the right internal carotid artery, and a tracheal cannula was inserted into the trachea. The guinea pigs were maintained on artificial respiration under the conditions of 60 times/min and 10 mL/kg/stroke. The airflow from the side branch of the tracheal cannula was measured by a bronchospasm transducer (Ugo-Basile) and recorded on a computer via Power Lab (ADInstruments Japan). The guinea pigs were immobilized with gallamine (10 mg/kg, i.v.), and histamine (12.5 μg/kg, i.v.) was administered at 10-minute intervals. After the histamine-induced bronchoconstriction became stable, the compound (0.3 mg/kg, i.v.) was administered. The histamine-induced bronchoconstriction reaction was measured 30 seconds after the compound administration to examine the bronchoconstriction inhibitory activity of the compound. The bronchoconstriction was recorded as the airflow value, and the results were represented by the ratio of the maximum value of the histamine- induced airflow 30 seconds after the administration to the maximum value of the airflow before the administration. Also, the test compounds dissolved in DMSO were used. Further, the indications were as follows: inhibition rate≧90% (+++), 90%>inhibition rate≧80% (++), and 80%>inhibition rate≧70% (+). [ ] means the results in the case of 0.1 mg/kg, i.v.

SMILES strings stand for the structures.

T2 sequence (Q14432 674-1093 limits assumed): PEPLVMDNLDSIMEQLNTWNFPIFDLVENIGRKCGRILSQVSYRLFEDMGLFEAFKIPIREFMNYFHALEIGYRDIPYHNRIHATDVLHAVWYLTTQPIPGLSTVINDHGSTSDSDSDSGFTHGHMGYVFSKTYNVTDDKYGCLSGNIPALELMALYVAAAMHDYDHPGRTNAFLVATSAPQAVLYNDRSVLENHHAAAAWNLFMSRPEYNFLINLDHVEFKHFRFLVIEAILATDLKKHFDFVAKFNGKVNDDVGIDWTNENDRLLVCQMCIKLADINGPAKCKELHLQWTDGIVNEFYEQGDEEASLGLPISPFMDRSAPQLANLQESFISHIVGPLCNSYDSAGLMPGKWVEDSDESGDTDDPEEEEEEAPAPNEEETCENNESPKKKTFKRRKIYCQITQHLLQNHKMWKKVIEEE
T1 sequence (Q07343 330-659 limits assumed): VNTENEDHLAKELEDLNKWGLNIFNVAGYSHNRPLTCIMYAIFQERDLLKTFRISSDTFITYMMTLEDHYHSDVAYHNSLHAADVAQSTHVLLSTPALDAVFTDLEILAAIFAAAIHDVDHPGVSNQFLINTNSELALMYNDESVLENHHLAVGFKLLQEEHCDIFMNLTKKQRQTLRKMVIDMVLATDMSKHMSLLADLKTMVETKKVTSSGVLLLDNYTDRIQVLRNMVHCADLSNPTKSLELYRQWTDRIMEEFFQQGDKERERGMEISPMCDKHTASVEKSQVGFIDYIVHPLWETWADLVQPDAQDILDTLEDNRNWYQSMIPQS

Turning to `COc1ccc(-c2ccc(=O)n(CCCCOc3ccc(C4=NNC(=O)CC4C)c(F)c3F)n2)c2nc(C(F)(F)F)[nH]c12` (stereo not drawn) [Example 279, 2-[4-[2,3-Difluoro-4-(4-methyl-6-oxo-1,4,5,6-tetrahydropyridazin-3-yl)phenoxy]butyl]-6-(4-methoxy-2-trifluoromethyl-1H-benzimidazol-7-yl)-2H-pyridazin-3-one], the IC50 is 0.1 to 1 µmol/L on PDE4Bcat and < 0.1 µmol/L in assay [1]. Besides, the inhibition in vivo at 0.3 mg/kg in assay [2] is ≥ 90%.
`CCc1ccc2c(-c3ccc(=O)n(CCCCOc4ccc(C5=NNC(=O)CC5)cc4OC)n3)ccc(OC)c2n1` [Example 291, 6-(2-Ethyl-8-methoxyquinolin-5-yl)-2-[4-[2-methoxy-4-(6-oxo-1,4,5,6-tetrahydropyridazin-3-yl)phenoxy]butyl]-2H-pyridazin-3-one]: the IC50 lay within 0.1 to 1 µmol/L at PDE4Bcat and 1 to 10 µmol/L in assay [1]. In addition, the inhibition in vivo at 0.3 mg/kg in assay [2] lay in the range of 70 to 80%.
The corresponding values for `COc1ccc(-c2ccc(=O)n(CCCCOc3ccc(C4=NNC(=O)C4(C)C)c(F)c3F)n2)c2nc(C(F)(F)F)[nH]c12` [Example 277, 2-[4-[2,3-Difluoro-4-(4,4-dimethyl-5-oxo-4,5-dihydro-1H-pyrazol-3-yl)phenoxy]butyl]-6-(4-methoxy-2-trifluoromethyl-1H-benzimidazol-7-yl)-2H-pyridazin-3-one] are 1 to 10 µmol/L, < 0.1 µmol/L and 80 to 90%.
As for `COc1ccc(C2=NN(CCCCOc3ccc(C4=NNC(=O)CC4C)cc3)C(=O)CC2C)c2cccnc12` (stereo not drawn) [Example 316, 6-(8-Methoxyquinolin-5-yl)-5-methyl-2-[4-[4-(4-methyl-6-oxo-1,4,5,6-tetrahydropyridazin-3-yl)phenoxy]butyl]-4,5-dihydro-2H-pyridazin-3-one], the IC50 at PDE4Bcat was 0.1 to 1 µmol/L; in assay [1] it was < 0.1 µmol/L. Besides, in assay [2] (compound 0.1 mg/kg, i.v. (values in [ ])), the inhibition in vivo at 0.1 mg/kg was ≥ 90%.
On to `COc1ccc(-c2ccc(=O)n(CCCCOc3ccc(C4=NNC(=O)C4(C)C)c(F)c3F)n2)c2sc(C(F)(F)F)nc12` [Example 309, 2-[4-[2,3-Difluoro-4-(4,4-dimethyl-5-oxo-4,5-dihydro-1H-pyrazol-3-yl)phenoxy]butyl]-6-(4-methoxy-2-trifluoromethylbenzothiazol-7-yl)-2H-pyridazin-3-one], for which the IC50 (on PDE4Bcat; in assay [1]) was < 0.1 µmol/L throughout.
For the molecule `COc1ccc(-c2ccc(=O)n(CCCCOc3ccc(C4=NNC(=O)CC4C)c(F)c3F)n2)c2cc(C(F)(F)F)sc12` (stereo not drawn) [Example 330, 2-[4-[2,3-Difluoro-4-(4-methyl-6-oxo-1,4,5,6-tetrahydropyridazin-3-yl)phenoxy]butyl]-6-(7-methoxy-2-trifluoromethylbenzo[b]thiophen-4-yl)-2H-pyridazin-3-one], the IC50 at PDE4Bcat is 1 to 10 µmol/L; in assay [1], < 0.1 µmol/L.
For `CCc1ccc2c(C3=NN(CCCCOc4ccc(C5=NNC(=O)C5(C)C)cc4F)C(=O)CC3C)ccc(OC)c2n1` (stereo not drawn) [Example 302, 6-(2-Ethyl-8-methoxyquinolin-5-yl)-5-methyl-2-[4-[2-fluoro-4-(4,4-dimethyl-5-oxo-4,5-dihydro-1H-pyrazol-3-yl)phenoxy]butyl]-4,5-dihydro-2H-pyridazin-3-one], in that order: < 0.1 µmol/L and 1 to 10 µmol/L.
With `CCc1ccc2c(-c3ccc(=O)n(CCCCOc4ccc(C5=NNC(=O)C5(C)C)cc4OC)n3)ccc(OC)c2n1` [Example 286, 6-(2-Ethyl-8-methoxyquinolin-5-yl)-2-[4-[2-methoxy-4-(4,4-dimethyl-5-oxo-4,5-dihydro-1H-pyrazol-3-yl)phenoxy]butyl]-2H-pyridazin-3-one], the IC50 on PDE4Bcat was 1 to 10 µmol/L; in assay [1] it was ≥ 10 µmol/L.
For `CCc1ccc2c(-c3ccc(=O)n(CCCOc4ccc(C5=NNC(=O)CC5C)c(F)c4F)n3)ccc(OC)c2n1` (stereo not drawn) [Example 325, 6-(2-Ethyl-8-methoxyquinolin-5-yl)-2-[3-[2,3-difluoro-4-(4-methyl-6-oxo-1,4,5,6-tetrahydropyridazin-3-yl)phenoxy]propyl]-2H-pyridazin-3-one], in that order: 0.1 to 1 µmol/L and 0.1 to 1 µmol/L.
With `COc1ccc(-c2ccc(=O)n(CCCCOc3ccc(C4=NNC(=O)C4(C)C)c(F)c3F)n2)c2cc(C(F)(F)F)sc12` [Example 332, 2-[4-[2,3-Difluoro-4-(4,4-dimethyl-5-oxo-4,5-dihydro-1H-pyrazol-3-yl)phenoxy]butyl]-6-(7-methoxy-2-trifluoromethylbenzo[b]thiophen-4-yl)-2H-pyridazin-3-one], the IC50 at PDE4Bcat is 1 to 10 µmol/L; in assay [1], 0.1 to 1 µmol/L.
The corresponding values for `CCc1ccc2c(-c3ccc(=O)n(CCCCOc4ccc(C5=NNC(=O)C5(C)C)cc4F)n3)ccc(OC)c2n1` [Example 285, 6-(2-Ethyl-8-methoxyquinolin-5-yl)-2-[4-[2-fluoro-4-(4,4-dimethyl-5-oxo-4,5-dihydro-1H-pyrazol-3-yl)phenoxy]butyl]-2H-pyridazin-3-one] are 1 to 10 µmol/L and 1 to 10 µmol/L.
For `CCc1ccc2c(-c3ccc(=O)n(CCCCOc4ccc(C5=NNC(=O)CC5C)cc4F)n3)ccc(OC)c2n1` (single isomer, unassigned; (+)) [Example 328, (+)-6-(2-Ethyl-8-methoxyquinolin-5-yl)-2-[4-[2-fluoro-4-(4-methyl-6-oxo-1,4,5,6-tetrahydropyridazin-3-yl)phenoxy]butyl]-2H-pyridazin-3-one], in that order: 0.1 to 1 µmol/L and < 0.1 µmol/L.
The corresponding values for `COc1ccc(-c2ccc(=O)n(CCCCOc3ccc(C4=NNC(=O)CC4C)cc3)n2)c2ccc(C)nc12` (stereo not drawn) [Example 268, 6-(8-Methoxy-2-methylquinolin-5-yl)-2-[4-[4-(4-methyl-6-oxo-1,4,5,6-tetrahydropyridazin-3-yl)phenoxy]butyl]-2H-pyridazin-3-one] are 0.1 to 1 µmol/L and 0.1 to 1 µmol/L.
Take `COc1ccc(-c2ccc(=O)n(CCCCOc3ccc(C4=NNC(=O)CC4C)c(F)c3F)n2)n2cc(C(F)(F)F)nc12` (stereo not drawn) [Example 336, 2-[4-[2,3-Difluoro-4-(4-methyl-6-oxo-1,4,5,6-tetrahydropyridazin-3-yl)phenoxy]butyl]-6-(8-methoxy-2-trifluoromethylimidazo[1,2-a]pyridin-5-yl)-2H-pyridazin-3-one]: the IC50 at PDE4Bcat was 0.1 to 1 µmol/L; in assay [1], < 0.1 µmol/L.
For `COc1ccc(-c2ccc(=O)n(CCCCOc3ccc(C4=NNC(=O)CC4C)c(F)c3F)n2)c2cc(C(F)(F)F)oc12` (stereo not drawn) [Example 276, 2-[4-[2,3-Difluoro-4-(4-methyl-6-oxo-1,4,5,6-tetrahydropyridazin-3-yl)phenoxy]butyl]-6-(7-methoxy-2-trifluoromethylbenzofuran-4-yl)-2H-pyridazin-3-one], in that order: 0.1 to 1 µmol/L and < 0.1 µmol/L.
Take `CCc1ccc2c(-c3ccc(=O)n(CCCCOc4ccc(C5=NNC(=O)CC5C)cc4)n3)ccc(OC)c2n1` (stereo not drawn) [Example 280, 6-(2-ethyl-8-Methoxyquinolin-5-yl)-2-[4-[4-(4-methyl-6-oxo-1,4,5,6-tetrahydropyridazin-3-yl)phenoxy]butyl]-2H-pyridazin-3-one]: the IC50 at PDE4Bcat was 0.1 to 1 µmol/L; in assay [1] it was < 0.1 µmol/L.

Source of the values: US20100160335A1, “PYRIDAZINONE DERIVATIVE AND PDE INHIBITOR CONTAINING THE SAME AS ACTIVE INGREDIENT” (KYORIN PHARMACEUTICAL CO., LTD., priority 2007, published 2010).
